Here are results for three molecules from patent US20100209960A1, “METHOD FOR MEASURING MITOCHONDRIAL MEMBRANE POTENTIAL IN VERTEBRATE CELLS” (MERCK SHARP & DOHME CORP., priority 2007, published 2010).

Data set [1] concerns mitochondrial membrane potential in CHO—K1 cells. The data set is described as follows: cells. It is filed as cell-based. The settings on record: for EC50: Cricetulus griseus, read-out: EC50 (decrease of mitochondrial membrane potential). As for the experimental part:
24 hours before assay, CHO—K1 cells were seeded in a 384 well plate at 75,000 cells per well in 50 μl growth medium (Iscove's Modified Dulbecco's Medium Invitrogen, 12440-046, 10% Fetal Bovine Serum (Invitrogen, 26140-095), 1× HT Supplement (Invitrogen, 11067-030) 1× Penicillin-Streptomycin solution (Hyclone, SV30010) 2 mM Glutamine (Hyclone, SH30034.01). Cells were then incubated overnight at 37° C., 5% carbon dioxide. When commencing the assay, 50 μl of assay buffer (50 mM Hepes, pH 7.4 150 mM KCL, 1600 mM NaCl, 25 mM D-(+)-glucose) was added to cells. […] 10 μl of 9 μM fluorescent dye TMRM (in 10% DMSO) was added and cells are incubated for 20 minutes at room temperature. 10 μl of 16 mM Brilliant Black BN prepared in D-PBS was added to yield a 1.6 mM final concentration of Brilliant Black BN. The fluorescence was immediately read on a Molecular Devices Analyst HT fluorescent plate reader, using an excitation wavelength of 530 nm and measuring the emission at 580 nm.
24 hours before assay, CHO—K1 cells were seeded in a 384 well plate at 75,000 cells per well in 50 μl growth medium (Iscove's Modified Dulbecco's Medium, lnvitrogen, 12440-046, 10% Fetal Bovine Serum (Invitrogen, 26140-095), 1× HT Supplement (Invitrogen, 11067-030) 1× Penicillin-Streptomycin solution (Hyclone, SV30010) 2 mM Glutamine (Hyclone, SH30034.01). Cells were then incubated overnight at 37° C., 5% carbon dioxide. When commencing the assay, 50 μl of assay buffer (50 mM Hepes, pH 7.4 150 mM KCL, 1600 mM NaCl, 25 mM D-(+)-glucose) was added to cells. 1 μl of the various amounts of the cation ionophore, H+—K+ antiporter, nigericin, was added and the cells are then incubated for 30 minutes at 37° C., 5% carbon dioxide. 10 μl of 9 μM fluorescent dye TMRM (in 10% DMSO) was added and cells are incubated for 20 minutes at room temperature. 10 μl of 16 mM Brilliant Black BN prepared in D-PBS was added yield a 1.6 mM final concentration of Brilliant Black BN. The fluorescence was immediately read on a Molecular Devices Analyst HT fluorescent plate reader, using an excitation wavelength of 530 nm and measuring the emission at 580 nm.

Data set [2] shares this test system. The data set is described as follows: Homogeneous TMRM/Brilliant Black BN mitochondrial membrane potential assay, 1536 well plate. It is filed as cell-based. The settings on record: Cricetulus griseus, 0.5 h, 30 minutes incubation, TMRM fluorescence, read-out: EC50 (decrease of mitochondrial membrane potential). As for the experimental part: 24 hours before assay, CHO—K1 cells were seeded in a 1536 well plate at 10,000 cells per well in 4 μl growth medium (Iscove's Modified Dulbecco's Medium Invitrogen, 12440-046, 10% Fetal Bovine Serum (Invitrogen, 26140-095), 1×HT Supplement (Invitrogen, 11067-030) 1× Penicillin-Streptomycin solution (Hyclone, SV30010) 2 mM Glutamine (Hyclone, SH30034.01). Cells were then incubated overnight at 37° C., 5% carbon dioxide. When commencing the assay, 4 μl of assay buffer (50 mM Hepes, pH 7.4 150 mM KCL, 1600 mM NaCl, 25 mM D-(+)-glucose) was added to cells. 80 nl of various amounts of the mitochondrial uncoupling compound, CCCP, was added and the cells were then incubated for 30 minutes at 37° C., 5% carbon dioxide. 0.8 μl of 6 μM fluorescent dye TMRM (in 20% DMSO) was added and cells were incubated for 20 minutes at room temperature. 0.8 μl of 16 mM Brilliant Black BN prepared in D-PBS was added yield a 1.6 mM final concentration of Brilliant Black BN. The fluorescence was immediately read on a Molecular Devices Tetra fluorescent plate reader, using an excitation wavelength of 530 nm and measuring the emission at 580 nm while employing a custom filter (Omega Optical) whose transmission wavelength was 580 nm±10 nm.

Take `CO[C@@H]1C[C@@H](C[C@H]2CC[C@H](C)[C@H]([C@@H](C)C(=O)O)O2)O[C@]2(O[C@](C)([C@H]3CC[C@@](C)([C@@H]4O[C@@H]([C@H]5O[C@@](O)(CO)[C@H](C)C[C@@H]5C)C[C@@H]4C)O3)C[C@H]2C)[C@@H]1C` [Nigericin, nigericin]: the “Effect at greater levels of nigericin” value in data set [1] is “toxicity and membrane depolarization”. Moreover, in data set [1] (adherent CHO—K1 cells, 384 well plate, increasing amounts of nigericin), the “Effect on mitochondrial membrane potential” value was “caused hyperpolarization of the mitochondrial membrane”. In the case of `O=[N+]([O-])c1ccc(O)c([N+](=O)[O-])c1` [2,4-DNP, 2,4-dinitrophenol], in data set [1] (CHO-K1, 0.5 h), the EC50 stood at 5000 nM. For the molecule `N#CC(C#N)=NNc1cccc(Cl)c1` [CCCP, carbonylcyanide m-chlorophenylhydrazone], the EC50 in data set [1] (0.5 h, adherent CHO—K1 cells, 384 well plate, 30 minutes incubation, TMRM fluorescence) was found to be 250 nM; in data set [2], 180 nM.

For orientation: EC50 means the midpoint of the concentration-response curve.
